According to ChEMBL document CHEMBL1201862, “PubChem BioAssay data set” (2004):
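All cell lines were grown in 96-well plates and treated with compound for 48 hours. GI50: concentration for 50% inhibition of growth.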 The source made the active and inactive calls. Rule as the data show it: active = GI50 up to about 1.1 µM and inactive = higher.

Key:
Assay in all cases: DTP human tumour cell line panel, 48 h
OVCAR-8 = test system: OVCAR-8
HT-29 = test system: HT-29
HCT-116 = test system: HCT-116
SW-620 = test system: SW-620
NCI-H226 = test system: NCI-H226
RXF 393 = test system: RXF 393
SF-539 = test system: SF-539
HOP-92 = test system: HOP-92
DU-145 = test system: DU-145
Hs-578T = test system: Hs-578T
K562 = test system: K562
RPMI-8226 = test system: RPMI-8226
COLO 205 = test system: COLO 205
MCF7 = test system: MCF7
SF-295 = test system: SF-295
SNB-75 = test system: SNB-75
NCI/ADR-RES = test system: NCI/ADR-RES
SK-MEL-2 = test system: SK-MEL-2
CAKI-1 = test system: CAKI-1
MOLT-4 = test system: MOLT-4
SR = test system: SR
TK-10 = test system: TK-10
LOX IMVI = test system: LOX IMVI
UACC-257 = test system: UACC-257
PC-3 = test system: PC-3
A549 = test system: A549
OVCAR-3 = test system: OVCAR-3
HCC 2998 = test system: HCC 2998
SNB-19 = test system: SNB-19
786-0 = test system: 786-0
HCT-15 = test system: HCT-15
NCI-H522 = test system: NCI-H522
SF-268 = test system: SF-268
U-251 = test system: U-251
NCI-H23 = test system: NCI-H23
HL-60 = test system: HL-60
ACHN = test system: ACHN
UACC-62 = test system: UACC-62
SK-MEL-5 = test system: SK-MEL-5
MDA-MB-231 = test system: MDA-MB-231
SK-MEL-28 = test system: SK-MEL-28
KM12 = test system: KM12
OVCAR-5 = test system: OVCAR-5
Malme-3M = test system: Malme-3M
NCI-H460 = test system: NCI-H460
CCRF-CEM = test system: CCRF-CEM
EKVX = test system: EKVX
M14 = test system: M14
HOP-62 = test system: HOP-62
MDA-MB-435 = test system: MDA-MB-435
IGROV-1 = test system: IGROV-1
BT-549 = test system: BT-549
UO-31 = test system: UO-31
SN12C = test system: SN12C
OVCAR-4 = test system: OVCAR-4
A498 = test system: A498
SK-OV-3 = test system: SK-OV-3

O=C1C=CC(=C(c2ccccc2)c2ccc(O)cc2)C=C1
GI50 (OVCAR-8): 16.9 µM (inactive)
GI50 (HT-29): 20.7 µM (inactive)
GI50 (HCT-116): 50.5 µM (inactive)
GI50 (SW-620): 18.1 µM (inactive)
GI50 (NCI-H226): 19.5 µM (inactive)
GI50 (RXF 393): 14.2 µM (inactive)
GI50 (SF-539): 13.2 µM (inactive)
GI50 (HOP-92): 18 µM (inactive)
GI50 (DU-145): 17.4 µM (inactive)
GI50 (Hs-578T): 16.7 µM (inactive)
GI50 (K562): 15.1 µM (inactive)
GI50 (RPMI-8226): 9.12 µM (inactive)
GI50 (COLO 205): 14.9 µM (inactive)
GI50 (MCF7): 13.4 µM (inactive)
GI50 (SF-295): 19.4 µM (inactive)
GI50 (SNB-75): 16.9 µM (inactive)
GI50 (NCI/ADR-RES): 32.7 µM (inactive)
GI50 (SK-MEL-2): 15.8 µM (inactive)
GI50 (CAKI-1): 17.3 µM (inactive)
GI50 (MOLT-4): 3.33 µM (inactive)
GI50 (SR): 7.45 µM (inactive)
GI50 (TK-10): 19.2 µM (inactive)
GI50 (LOX IMVI): 4.51 µM (inactive)
GI50 (UACC-257): 16.9 µM (inactive)
GI50 (PC-3): 22.1 µM (inactive)
GI50 (A549): 17.4 µM (inactive)
GI50 (OVCAR-3): 16.2 µM (inactive)
GI50 (HCC 2998): 31.1 µM (inactive)
GI50 (SNB-19): 13.8 µM (inactive)
GI50 (786-0): 18.7 µM (inactive)
GI50 (HCT-15): 14.2 µM
GI50 (NCI-H522): 13.7 µM (inactive)
GI50 (SF-268): 20 µM (inactive)
GI50 (U-251): 12.4 µM (inactive)
GI50 (NCI-H23): 18.7 µM (inactive)
GI50 (HL-60): 8.15 µM (inactive)
GI50 (ACHN): 19.4 µM (inactive)
GI50 (UACC-62): 14.1 µM (inactive)
GI50 (SK-MEL-5): 11.5 µM (inactive)
GI50 (MDA-MB-231): 15.2 µM (inactive)
GI50 (SK-MEL-28): 16.1 µM (inactive)
GI50 (KM12): 19.4 µM (inactive)
GI50 (OVCAR-5): 20.3 µM (inactive)
GI50 (Malme-3M): 13.6 µM (inactive)
GI50 (NCI-H460): 17.3 µM (inactive)
GI50 (CCRF-CEM): 1.16 µM (inactive)
GI50 (EKVX): 13.7 µM (inactive)
GI50 (M14): 24.2 µM (inactive)
GI50 (HOP-62): 21.9 µM (inactive)
GI50 (MDA-MB-435): 15.7 µM (inactive)
GI50 (IGROV-1): 8.41 µM (inactive)
GI50 (BT-549): 6.03 µM (inactive)
GI50 (UO-31): 14.8 µM (inactive)
GI50 (SN12C): 13.6 µM (inactive)
GI50 (OVCAR-4): 14.3 µM (inactive)

COc1ccc(NC(=S)N/N=C/c2c(C)n(C)n(-c3ccccc3)c2=O)cc1
GI50 (OVCAR-8): 20.7 µM (inactive)
GI50 (HT-29): 69.5 µM (inactive)
GI50 (HCT-116): 77.6 µM (inactive)
GI50 (SW-620): > 100 µM (inactive)
GI50 (NCI-H226): 35.6 µM (inactive)
GI50 (RXF 393): 23 µM (inactive)
GI50 (SF-539): 21.3 µM (inactive)
GI50 (HOP-92): 22.2 µM (inactive)
GI50 (Hs-578T): 29.9 µM (inactive)
GI50 (K562): 26.2 µM (inactive)
GI50 (RPMI-8226): > 100 µM (inactive)
GI50 (COLO 205): > 100 µM (inactive)
GI50 (MCF7): 42.7 µM (inactive)
GI50 (SF-295): 37.9 µM (inactive)
GI50 (SNB-75): 28 µM (inactive)
GI50 (NCI/ADR-RES): 42.9 µM (inactive)
GI50 (SK-MEL-2): 32.1 µM (inactive)
GI50 (CAKI-1): 22 µM (inactive)
GI50 (MOLT-4): > 100 µM (inactive)
GI50 (SR): 78.5 µM (inactive)
GI50 (A498): 17.2 µM (inactive)
GI50 (TK-10): 53.3 µM (inactive)
GI50 (LOX IMVI): > 100 µM (inactive)
GI50 (UACC-257): > 100 µM (inactive)
GI50 (PC-3): 69.8 µM (inactive)
GI50 (HCC 2998): > 100 µM (inactive)
GI50 (SNB-19): 20.5 µM (inactive)
GI50 (786-0): 24.1 µM (inactive)
GI50 (HCT-15): > 100 µM
GI50 (SF-268): 27.9 µM (inactive)
GI50 (U-251): 20.4 µM (inactive)
GI50 (NCI-H23): 31.5 µM (inactive)
GI50 (HL-60): > 100 µM (inactive)
GI50 (ACHN): 34.7 µM (inactive)
GI50 (UACC-62): 51.1 µM (inactive)
GI50 (SK-OV-3): 28.6 µM (inactive)
GI50 (SK-MEL-5): > 100 µM (inactive)
GI50 (MDA-MB-231): 17.5 µM (inactive)
GI50 (SK-MEL-28): 64.1 µM (inactive)
GI50 (KM12): > 100 µM (inactive)
GI50 (CCRF-CEM): > 100 µM (inactive)
GI50 (EKVX): 42.8 µM (inactive)
GI50 (M14): > 100 µM (inactive)
GI50 (HOP-62): 19.4 µM (inactive)
GI50 (MDA-MB-435): 51.4 µM (inactive)
GI50 (IGROV-1): 47.5 µM (inactive)
GI50 (BT-549): 43.7 µM (inactive)
GI50 (UO-31): 26.4 µM (inactive)
GI50 (OVCAR-4): 19.1 µM (inactive)
